Measured values from ChEMBL document CHEMBL1201862, “PubChem BioAssay data set” (2004).
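Where inhibition never reached the appropriate level, the endpoint shown equals the highest concentration tested. Otherwise, values were interpolated linearly from a five-concentration, 48-hour dose response in 96-well plates. Abbreviation: GI50, concentration required for 50% inhibition of growth.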 Active and inactive are the calls of the source. No stated cut-off is given here; in the data, active = GI50 up to about 1.1 µM and inactive = higher.

Legend:
Assay in all cases: NCI-60 cell line screen, 48 h
[1] = system: COLO 205
[2] = system: IGROV-1
[3] = system: RXF 393
[4] = system: MDA-MB-231
[5] = system: HOP-62
[6] = system: TK-10
[7] = system: RPMI-8226
[8] = system: A549
[9] = system: SW-620
[10] = system: EKVX
[11] = system: OVCAR-3
[12] = system: 786-0
[13] = system: SN12C
[14] = system: CCRF-CEM
[15] = system: SK-OV-3
[16] = system: A498
[17] = system: SK-MEL-5
[18] = system: NCI-H226
[19] = system: Malme-3M
[20] = system: MDA-N

SMILES | GI50 [1] | GI50 [2] | GI50 [3] | GI50 [4] | GI50 [5] | GI50 [6] | GI50 [7] | GI50 [8] | GI50 [9] | GI50 [10] | GI50 [11] | GI50 [12] | GI50 [13] | GI50 [14] | GI50 [15] | GI50 [16] | GI50 [17] | GI50 [18] | GI50 [19] | GI50 [20]
O=C(NCCCCNCCCNC(=O)c1ccccc1)c1ccccc1 | > 100 µM (inactive) | > 100 µM (inactive) | > 100 µM (inactive) | > 100 µM (inactive) | > 100 µM (inactive) | > 100 µM (inactive) | > 100 µM (inactive) | > 100 µM (inactive) | > 100 µM (inactive) | > 100 µM (inactive) | > 100 µM (inactive) | > 100 µM (inactive) | > 100 µM (inactive) | > 100 µM (inactive) | > 100 µM (inactive) | > 100 µM (inactive) | > 100 µM (inactive) | > 100 µM (inactive) | – | –
CCOC(=O)C(=Cc1ccccc1Br)C(=O)OCC | 2.8 µM (inactive) | 1.96 µM (inactive) | 2.1 µM (inactive) | 6.41 µM (inactive) | 2.37 µM (inactive) | 3.47 µM (inactive) | 2.23 µM (inactive) | 4 µM (inactive) | 1.97 µM (inactive) | 4.18 µM (inactive) | 2.07 µM (inactive) | 3.05 µM (inactive) | 2.84 µM (inactive) | 9.23 µM (inactive) | – | 2.03 µM (inactive) | 1.85 µM (inactive) | 3.51 µM (inactive) | 3.48 µM (inactive) | –
O=S1(=O)C(c2ccccc2)=C(O)c2ccccc21 | > 100 µM (inactive) | > 100 µM (inactive) | 35.8 µM (inactive) | 7.91 µM (inactive) | > 100 µM (inactive) | > 100 µM (inactive) | > 100 µM (inactive) | > 100 µM (inactive) | > 100 µM (inactive) | > 100 µM (inactive) | > 100 µM (inactive) | > 100 µM (inactive) | – | > 100 µM (inactive) | – | > 100 µM (inactive) | > 100 µM (inactive) | > 100 µM (inactive) | > 100 µM (inactive) | –
C=CCCC(CCC=C)(C(=O)O)C(=O)O | > 100 µM (inactive) | > 100 µM (inactive) | > 100 µM (inactive) | > 100 µM (inactive) | > 100 µM (inactive) | > 100 µM (inactive) | > 100 µM (inactive) | > 100 µM (inactive) | > 100 µM (inactive) | > 100 µM (inactive) | > 100 µM (inactive) | > 100 µM (inactive) | > 100 µM (inactive) | > 100 µM (inactive) | – | – | > 100 µM (inactive) | – | > 100 µM (inactive) | > 100 µM (inactive)
CC(C)(C)C1=C(Br)C(C(C)(C)C)OP1(=O)O (stereo unspecified) | > 100 µM (inactive) | > 100 µM (inactive) | – | – | > 100 µM (inactive) | > 100 µM (inactive) | – | > 100 µM (inactive) | – | > 100 µM (inactive) | > 100 µM (inactive) | > 100 µM (inactive) | > 100 µM (inactive) | – | > 100 µM (inactive) | > 100 µM (inactive) | > 100 µM (inactive) | > 100 µM (inactive) | > 100 µM (inactive) | > 100 µM (inactive)
NNC(=O)Cn1ccnn1 | > 100 µM (inactive) | > 100 µM (inactive) | – | > 100 µM (inactive) | > 100 µM (inactive) | > 100 µM (inactive) | > 100 µM (inactive) | > 100 µM (inactive) | > 100 µM (inactive) | > 100 µM (inactive) | – | > 100 µM (inactive) | > 100 µM (inactive) | > 100 µM (inactive) | – | – | > 100 µM (inactive) | – | > 100 µM (inactive) | –
CC[C@]1(Cc2ccc(OC)c(OC)c2)C=[N+]([O-])O[C@H](OC2CCCC2(c2ccccc2)c2ccccc2)[C@@H]1OC(=O)c1ccccc1 (stereo partly specified) | 8.79 µM (inactive) | 3.67 µM (inactive) | 4.35 µM (inactive) | > 24.9 µM (inactive) | 9.89 µM (inactive) | – | – | 5.92 µM (inactive) | 8.87 µM (inactive) | 3.86 µM (inactive) | 3.15 µM (inactive) | 6.75 µM (inactive) | > 21.2 µM (inactive) | 3.27 µM (inactive) | > 47.9 µM (inactive) | – | 4.37 µM (inactive) | 18 µM (inactive) | – | 8.17 µM (inactive)
CCCCCCCCCC[C@@H](O)[C@H]1CC[C@H]([C@H]2CC[C@H]([C@H](O)CCCCCCCCCC[C@@H]3CC(CC(C)=O)C(=O)O3)O2)O1 (stereo partly specified) | 13 µM (inactive) | > 34.4 µM (inactive) | 20.7 µM (inactive) | > 50 µM (inactive) | 46.5 µM (inactive) | > 39.4 µM (inactive) | 0.231 µM (active) | 9.93 µM (inactive) | 26.2 µM (inactive) | 7.43 µM (inactive) | 15.1 µM (inactive) | 23.2 µM (inactive) | 33.4 µM (inactive) | 9.23 µM (inactive) | 31.8 µM (inactive) | > 28.5 µM (inactive) | 0.0929 µM (active) | 23.8 µM (inactive) | 16 µM (inactive) | –
O=c1[nH]c2cc(F)c(F)cc2nc1Cc1ccccc1 | > 100 µM (inactive) | > 100 µM (inactive) | > 100 µM (inactive) | > 100 µM (inactive) | > 100 µM (inactive) | > 100 µM (inactive) | – | – | > 100 µM (inactive) | > 100 µM (inactive) | – | > 100 µM (inactive) | – | > 100 µM (inactive) | > 100 µM (inactive) | > 100 µM (inactive) | > 100 µM (inactive) | > 100 µM (inactive) | – | –
O=C(O)c1ccc2nc(-c3ccccn3)c(-c3ccccn3)nc2c1 | > 100 µM (inactive) | > 100 µM (inactive) | > 100 µM (inactive) | > 100 µM (inactive) | > 100 µM (inactive) | > 100 µM (inactive) | > 100 µM (inactive) | – | > 100 µM (inactive) | > 100 µM (inactive) | – | > 100 µM (inactive) | – | > 100 µM (inactive) | > 100 µM (inactive) | > 100 µM (inactive) | > 100 µM (inactive) | > 100 µM (inactive) | – | –
CC(=O)CSc1c(-c2ccccc2)c(=O)n(-c2ccccc2)c(=S)n1-c1ccccc1 | > 100 µM (inactive) | > 100 µM (inactive) | – | – | > 100 µM (inactive) | > 100 µM (inactive) | > 100 µM (inactive) | > 100 µM (inactive) | > 100 µM (inactive) | > 100 µM (inactive) | > 100 µM (inactive) | > 100 µM (inactive) | > 100 µM (inactive) | > 100 µM (inactive) | > 100 µM (inactive) | – | > 100 µM (inactive) | > 100 µM (inactive) | > 100 µM (inactive) | > 100 µM (inactive)
O=C1c2ccccc2C2CCC1c1ccccc12 (stereo unspecified) | 19.2 µM (inactive) | 62.2 µM (inactive) | 24.4 µM (inactive) | – | 48 µM (inactive) | 34.9 µM (inactive) | 16 µM (inactive) | 25.2 µM (inactive) | 39.2 µM (inactive) | 43.4 µM (inactive) | 30.5 µM (inactive) | 38.8 µM (inactive) | 43.8 µM (inactive) | 23.9 µM (inactive) | 41.5 µM (inactive) | 58.6 µM (inactive) | 16.3 µM (inactive) | 45.6 µM (inactive) | 18.3 µM (inactive) | –
NNC(=O)c1ccc(-n2nnc(C(=O)NN)c2C(=O)NN)cc1 | > 100 µM (inactive) | – | – | > 100 µM (inactive) | > 100 µM (inactive) | > 100 µM (inactive) | > 100 µM (inactive) | > 100 µM (inactive) | – | > 100 µM (inactive) | > 100 µM (inactive) | > 100 µM (inactive) | > 100 µM (inactive) | > 100 µM (inactive) | – | – | > 100 µM (inactive) | – | > 100 µM (inactive) | > 100 µM (inactive)
S=C(Nc1ccccc1)N(Cc1ccccc1)c1ccccc1 | 23.3 µM (inactive) | 44.4 µM (inactive) | 22.6 µM (inactive) | 45.6 µM (inactive) | 49.3 µM (inactive) | 29.7 µM (inactive) | 34.9 µM (inactive) | 29.8 µM (inactive) | 13.7 µM (inactive) | 17.5 µM (inactive) | 30.2 µM (inactive) | 74.3 µM (inactive) | 44.1 µM (inactive) | 28.4 µM (inactive) | > 100 µM (inactive) | 14.6 µM (inactive) | 13.8 µM (inactive) | 35.7 µM (inactive) | 11.2 µM (inactive) | –
N#CCc1nc(-c2cc3c(ccc4ccccc43)oc2=O)cs1 | > 100 µM (inactive) | 15.2 µM (inactive) | 23.4 µM (inactive) | 17.9 µM (inactive) | 16.7 µM (inactive) | 18.1 µM (inactive) | > 100 µM (inactive) | 50 µM (inactive) | 91.8 µM (inactive) | 20.3 µM (inactive) | – | 22.2 µM (inactive) | 57.8 µM (inactive) | > 100 µM (inactive) | 30.3 µM (inactive) | – | 69.3 µM (inactive) | 24.7 µM (inactive) | > 100 µM (inactive) | –
COC(=O)C(C#N)=C1c2ccccc2Oc2ccccc21 | 92 µM (inactive) | 64.3 µM (inactive) | 38.5 µM (inactive) | – | > 100 µM (inactive) | > 100 µM (inactive) | 18.8 µM (inactive) | > 100 µM (inactive) | 43.2 µM (inactive) | > 100 µM (inactive) | 21.5 µM (inactive) | 63.7 µM (inactive) | 38.9 µM (inactive) | 32.4 µM (inactive) | 42.1 µM (inactive) | > 100 µM (inactive) | 33.9 µM (inactive) | 65.5 µM (inactive) | 93.3 µM (inactive) | –
